Laboratory results as given in patent US11584744B2 (UNIVERSITY OF WASHINGTON, priority 2017, dated 2023).
Converted amounts (≈) assume the structure as drawn. “And” between values parts separate entries of the source, which are not always exact repeats. Equal values may be shown once. Read-outs that look alike come from different tables or passages of the source.

Experiments:
[1] = system: S. aureus MSSA (ATCC 29213); assay: MIC susceptibility testing; format: cell-based, Staphylococcus aureus; conditions: Staphylococcus aureus, S. aureus ATCC 29213, read-out: (F) S. aureus (ATCC 29213) MIC
S. pyogenes (ATCC 19615) = assay: MIC susceptibility testing; format: cell-based; conditions: Streptococcus pyogenes, ATCC19615, S. pyogenes ATCC 19615; read-out: (H) S. pyogenes (ATCC 19615) MIC
Description: Media and culture conditions. Mueller Hinton broth (MHB), cation adjusted Mueller Hinton broth (CA-MHB), and Brain Heart Infusion broth (BHI) were purchased from Becton Dickinson (Franklin Lakes, N.J.). Tryptic soy agar (TSA) plates, TSA with 5% sheep blood plates, and CA-MHB with 3% laked horse blood were purchased from Remel (San Diego, Calif.). MHB was used to assay all Staphylococcus aureus strains. CA-MHB was used for Staphylococcus epidermidis, Enterococcus faecalis, Enterococcus faecium, Escherichia coli, and Pseudomonas aeruginosa. CA-MHB supplemented with 3% laked horse blood was used for Streptococcus pneumoniae and Streptococcus pyogenes. Staphylococcus, Enterococcus, Escherichia, and Pseudomonas strains were cultured at 37° C. with ambient air. Streptococcus strains were cultured in 37° C. with 5% CO2. Separate conditions for radiolabeled precursor uptake assays are described below.
Susceptibility testing: Minimum inhibitory concentration (MIC) determinations were performed in triplicate in 96-well round bottom microtiter plates (Corning, Corning N.Y.) as described by the Clinical and Laboratory Standards Institute (CLSI). Serial two-fold dilutions of compounds were added to plates in 50 μL volumes. An additional 50 μL of media containing bacterial cells (1×10^6 CFUs/mL) was then added to each well. Maximum DMSO concentrations were 0.5%. Plates were incubated at 37° C. for at least 18 h before reading the susceptibility result by optical absorbance (OD600) using a BioTek ELx800. The lowest concentration causing ≥90% growth inhibition compared to the untreated control was recorded as the MIC (and also corresponded to the visual MIC). MICs were measured at least twice and the higher value (if different) was recorded herein.

T. brucei = T. brucei growth inhibition; format: cell-based, Trypanosoma brucei; conditions: read-out: (D) T. brucei EC50
T. cruzi = T. cruzi growth inhibition; format: cell-based, Trypanosoma cruzi; conditions: read-out: (E) T. cruzi EC50
C. parvum = C. parvum growth inhibition; format: cell-based, Cryptosporidium parvum; conditions: read-out: (J) C. parvum EC50
[2] = target: recombinant S. aureus MetRS enzyme (Staphylococcus aureus, UniProt A0A0H2XID2); assay: Inhibition of SaMetRS, ATP depletion assay; format: biochemical; conditions: read-out: (B) MetRS (S. aureus) IC50
Procedure: Production of recombinant S. aureus MetRSs. The SaMetRS gene (UniProtKB—A0A0H2XID2) was PCR amplified (Sense 5′-[…]-3′ (SEQ ID NO: 1) and Antisense 5′-[…]-3′ (SEQ ID NO:2)) from genomic DNA isolated from S. aureus (ATCC 29213) cultures. The PCR product was then cloned into the AVA0421 plasmid and sequence verified. The expression of recombinant protein was performed as previously described. The N-terminal 6-His fusion proteins were purified by nickel affinity chromatography followed by size exclusion gel chromatography (Superdex 75 26/60; GE Biosciences, Piscataway, N.J.).
Enzyme assays. Inhibition of SaMetRS was measured using the ATP depletion assay as previously described with some modifications. Compounds were pre-incubated for 15 minutes at room temperature in a 96-well plate with 400 μg/mL bulk E. coli tRNA, 25 nM SaMetRS, 0.1 U/mL pyrophosphatase, 0.2 mM spermine, 0.1 mg/mL bovine serum albumin, 2.5 mM dithiothreitol, 25 mM HEPES-KOH pH 7.9, 10 mM MgCl2, 50 mM KCl, and 2% DMSO. Reagents were purchased from Sigma-Aldrich or Roche. The reaction was started with the addition of 150 nM ATP and 20 μM L-methionine and after 120 minute incubation was stopped by the addition of an equal volume (50 μL) of Kinase-Glo® (Promega). Percent inhibition=100×(test compound−AVG low control)/(AVG high control−AVG low control) where the low control is all reagents except the compound and the high control is all reagents except the compounds and L-methionine. IC50 values were calculated by non-linear regression, sigmoidal-dose response, in Prism 3.0.

[3] = system: S. aureus MRSA (ATCC 33591); assay: MIC susceptibility testing; format: cell-based, Staphylococcus aureus; conditions: MRSA ATCC33591; for MIC: Staphylococcus aureus, read-out: (G) MRSA (ATCC33591) MIC
Outline: (§1)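 CLSI broth microdilution in triplicate, 5×10^5 CFU/mL final, ≤0.5% DMSO; MHB for S. aureus, CA-MHB for E. coli and E. faecium, CA-MHB plus 3% laked horse blood for S. pyogenes (5% CO2).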

[4] = system: E. faecium VRE (ATCC 51559); assay: MIC susceptibility testing; format: cell-based, Enterococcus faecium; conditions: E. faecium ATCC 51559; for MIC: Enterococcus faecium, read-out: (I) E. faecium (ATCC 51559) MIC
Outline: as §1

MetRS (T. brucei) = target: T1, MetRS (T. brucei) (Trypanosoma brucei brucei, UniProt Q38C91); assay: MetRS (T. brucei) enzyme inhibition; format: biochemical
T1 sequence (Q38C91 1-773): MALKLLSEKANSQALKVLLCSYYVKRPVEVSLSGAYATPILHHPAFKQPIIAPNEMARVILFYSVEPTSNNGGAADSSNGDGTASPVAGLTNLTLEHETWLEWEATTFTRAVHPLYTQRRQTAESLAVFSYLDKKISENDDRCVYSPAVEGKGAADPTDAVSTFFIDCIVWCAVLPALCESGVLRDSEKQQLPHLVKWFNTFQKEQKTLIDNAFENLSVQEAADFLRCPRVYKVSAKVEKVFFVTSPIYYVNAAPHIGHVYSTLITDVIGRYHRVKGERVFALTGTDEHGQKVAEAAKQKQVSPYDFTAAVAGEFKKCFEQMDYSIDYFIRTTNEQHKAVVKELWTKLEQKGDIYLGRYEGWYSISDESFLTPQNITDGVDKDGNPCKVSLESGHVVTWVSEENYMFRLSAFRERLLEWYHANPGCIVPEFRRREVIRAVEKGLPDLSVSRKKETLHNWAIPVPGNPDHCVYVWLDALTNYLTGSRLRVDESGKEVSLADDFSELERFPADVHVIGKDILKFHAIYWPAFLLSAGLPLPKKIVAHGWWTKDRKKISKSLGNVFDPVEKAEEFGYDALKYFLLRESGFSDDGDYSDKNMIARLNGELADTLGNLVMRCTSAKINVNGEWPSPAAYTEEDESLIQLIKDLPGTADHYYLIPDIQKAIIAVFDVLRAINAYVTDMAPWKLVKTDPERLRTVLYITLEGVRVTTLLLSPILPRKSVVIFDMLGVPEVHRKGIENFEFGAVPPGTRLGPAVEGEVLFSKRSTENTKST

MetRS (C. parvum) = MetRS (C. parvum) (Cryptosporidium parvum, UniProt Q5CVN0); assay: MetRS (C. parvum) enzyme inhibition; format: biochemical; conditions: read-out: (C) MetRS (C. parvum) IC50
MetRS (C. parvum), sequence (Q5CVN0 entry or part of it): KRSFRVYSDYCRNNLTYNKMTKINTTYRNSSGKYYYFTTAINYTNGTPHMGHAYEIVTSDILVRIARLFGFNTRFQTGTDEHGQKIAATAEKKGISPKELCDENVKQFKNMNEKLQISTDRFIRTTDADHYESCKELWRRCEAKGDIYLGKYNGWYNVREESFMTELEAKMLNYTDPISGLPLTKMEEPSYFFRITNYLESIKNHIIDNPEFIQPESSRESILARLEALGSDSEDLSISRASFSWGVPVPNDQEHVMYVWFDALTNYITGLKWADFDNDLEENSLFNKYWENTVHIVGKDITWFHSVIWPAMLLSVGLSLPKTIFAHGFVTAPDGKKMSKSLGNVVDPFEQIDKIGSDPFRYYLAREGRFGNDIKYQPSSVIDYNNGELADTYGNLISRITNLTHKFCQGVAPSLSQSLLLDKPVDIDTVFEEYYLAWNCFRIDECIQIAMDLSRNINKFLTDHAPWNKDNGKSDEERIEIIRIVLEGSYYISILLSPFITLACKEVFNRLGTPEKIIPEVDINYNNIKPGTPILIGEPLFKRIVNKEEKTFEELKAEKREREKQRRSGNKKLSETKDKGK

MIC [1] [µg/mL]	MIC (S. pyogenes (ATCC 19615)) [µg/mL]	EC50 (T. brucei; Trypanosoma brucei) [nM]	EC50 (T. brucei)	EC50 (T. cruzi; Trypanosoma cruzi) [nM]	EC50 (T. cruzi) [nM]	MIC ([1]; ATCC29213|MSSA) [µg/mL]	EC50 (C. parvum) [nM]	Compound	EC50 (C. parvum; Cryptosporidium parvum) [nM]	IC50 [2] [nM]	(G) MRSA (ATCC33591) MIC [3]	MIC [3] [µg/mL]	MIC [4] [µg/mL]	IC50 (MetRS (T. brucei)) [nM]	IC50 (MetRS (C. parvum)) [nM]	(I) E. faecium (ATCC 51559) MIC [4]
0.21 (≈ 0.471 µM)	0.455 (≈ 1.02 µM)	< 0.91	0.78 nM	5.26	7.44	–	–	CCn1c(C(=O)c2ccc(OC)cc2Cl)cn(Cc2nc3ccc(Cl)nc3[nH]2)c1=O [Compound 2296, 1-({5-chloro-1H-imidazo[4,5-b]pyridin-2-yl}methyl)-4-(2-chloro-4-methoxybenzoyl)-3-ethyl-2,3-dihydro-1H-imidazol-2-one]	62	–	–	–	–	–	–	–
> 8	> 8	831	–	–	–	–	–	CC(C)NCC(O)Cn1c(Cc2ccc(Cl)cc2Cl)cn(Cc2nc3cc(F)c(F)cc3[nH]2)c1=O (stereo not shown) [Compound 2293, 4-[(2,4-dichlorophenyl)methyl]-1-[(5,6-difluoro-1H-1,3-benzodiazol-2-yl)methyl]-3-{2-hydroxy-3-[(propan-2-yl)amino]propyl}-2,3-dihydro-1H-imidazol-2-one]	–	–	–	–	–	–	–	–
2.98 (≈ 6.65 µM)	> 8	7.12	–	53.8	79.7	–	–	CCn1c(C(O)c2ccc(OC)cc2Cl)cn(Cc2nc3ccc(Cl)nc3[nH]2)c1=O (stereo not shown) [Compound 2297, 1-({5-chloro-1H-imidazo[4,5-b]pyridin-2-yl}methyl)-4-[(2-chloro-4-methoxyphenyl)(hydroxy)methyl]-3-ethyl-2,3-dihydro-1H-imidazol-2-one]	203	–	–	–	–	–	–	–
–	1.16 (≈ 2.49 µM)	< 0.91	0.71 nM	5.3	4.59	0.124 (≈ 0.266 µM)	–	CCn1c(Cc2c(Cl)cc(Cl)cc2OC)cn(Cc2nc3ccc(Cl)nc3[nH]2)c1=O [Compound 2295]	–	–	–	–	–	–	–	–
> 8	> 8	30.4	–	3330	–	–	–	CC(C)NCC(O)Cn1c(Cc2ccc(Cl)cc2Cl)cn(Cc2nc3ccc(F)nc3[nH]2)c1=O (stereo not shown) [Compound 2294, 4-[(2,4-dichlorophenyl)methyl]-1-({5-fluoro-1H-imidazo[4,5-b]pyridin-2-yl}methyl)-3-{2-hydroxy-3-[(propan-2-yl)amino]propyl}-2,3-dihydro-1H-imidazol-2-one]	–	–	–	–	–	–	–	–
1.16 (≈ 2.42 µM)	> 2	1.79	–	183	–	–	–	CCNC(=O)n1c(Cc2ccc(Cl)cc2Cl)cn(Cc2nc3nc(Cl)ccc3[nH]2)c1=O [Compound 2288, 3-({5-chloro-1H-imidazo[4,5-b]pyridin-2-yl}methyl)-5-[(2,4-dichlorophenyl)methyl]—N-ethyl-2-oxo-2,3-dihydro-1H-imidazole-1-carboxamide]	–	–	–	> 2	–	–	–	–
–	0.847 (≈ 1.76 µM)	2.12	1.52 nM and 1.8 nM and 1.71 nM	–	–	–	> 2000	COc1cc(Cl)c(Cc2cn(Cc3nc4ccc(Cl)nc4[nH]3)c([S+](C)[O-])n2)cc1OC (stereo not shown) [Compound 2241, 1-({5-chloro-1H-imidazo[4,5-b]pyridin-2-yl}methyl)-4-[(2-chloro-4,5-dimethoxyphenyl)methyl]-2-methanesulfinyl-1H-imidazole]	1600	–	0.113 µg/mL	0.104 (≈ 0.216 µM)	0.0277 (≈ 0.0577 µM)	–	< 40	0.0206, μg/ml and 0.0160, μg/ml and 0.0189 μg/ml

Compound	MIC [1] [µg/mL]	MIC (S. pyogenes (ATCC 19615)) [µg/mL]	EC50 (T. brucei; Trypanosoma brucei) [nM]	EC50 (T. brucei)	EC50 (T. cruzi; Trypanosoma cruzi) [nM]	EC50 (T. cruzi) [nM]	MIC ([1]; ATCC29213|MSSA) [µg/mL]	EC50 (C. parvum) [nM]	EC50 (C. parvum; Cryptosporidium parvum) [nM]	IC50 [2] [nM]	(G) MRSA (ATCC33591) MIC [3]	MIC [3] [µg/mL]	MIC [4] [µg/mL]	IC50 (MetRS (T. brucei)) [nM]	IC50 (MetRS (C. parvum)) [nM]	(I) E. faecium (ATCC 51559) MIC [4]
Clc1ccc(-c2cccc3nc(Cc4nc5nc(Cl)ccc5[nH]4)cn23)c(Cl)c1 [Compound 2134, 2-({5-chloro-1H-imidazo[4,5-b]pyridin-2-yl}methyl)-5-(2,4-dichlorophenyl)-imidazo[1,2-a]pyridine]	0.162 (≈ 0.378 µM)	–	64	–	685	–	–	–	–	< 25	0.331 µg/mL	0.268 (≈ 0.625 µM)	0.259 (≈ 0.604 µM)	< 40	58.8	–
COc1cc(-c2cccc3nc(Cc4nc5nc(Br)ccc5[nH]4)cn23)c(Cl)cc1Cl [Compound 2146, 2-({5-bromo-1H-imidazo[4,5-b]pyridin-2-yl}methyl)-5-(2,4-dichloro-5-methoxyphenyl)imidazo[1,2-a]pyridine]	–	–	–	–	19.5	29.7	–	–	1990	< 25	0.165, μg/mL and 0.179 μg/mL	0.127 (≈ 0.252 µM)	0.141 (≈ 0.28 µM)	< 40	92.4	–
COc1ccc(-c2ccc(NS(C)(=O)=O)c3nc(Cc4nc5nc(Cl)ccc5[nH]4)cn23)c(Cl)c1 [Compound 2174, N-[2-({5-chloro-1H-imidazo[4,5-b]pyridin-2-yl}methyl)-5-(2-chloro-4-methoxyphenyl)imidazo[1,2-a]pyridin-8-yl]methanesulfonamide]	0.158 (≈ 0.305 µM)	–	–	–	195	–	–	–	1190	< 25	–	0.319 (≈ 0.617 µM)	0.318 (≈ 0.615 µM)	< 40	< 40	–
COc1ccc(-c2ccc(NC(C)=O)c3nc(Cc4nc5nc(Br)ccc5[nH]4)cn23)c(Cl)c1 [Compound 2184, N-[2-({5-bromo-1H-imidazo[4,5-b]pyridin-2-yl}methyl)-5-(2-chloro-4-methoxyphenyl)imidazo[1,2-a]pyridin-8-yl]acetamide]	0.201 (≈ 0.382 µM)	–	–	–	29.3	23.1	–	–	719	< 25	–	0.435 (≈ 0.827 µM)	0.286 (≈ 0.544 µM)	< 40	< 40	–
